Reference: article PMC7324522, “Targeting a critical step in fungal hexosamine biosynthesis” (The Journal of Biological Chemistry, 2020)

Tests used:
AfGna1 [1] = target: T1, AfGna1 (Aspergillus fumigatus, UniProt Q4WCU5); test: bio-layer interferometry, confirmed by isothermal titration calorimetry; type: binding; conditions: read-out: equilibrium dissociation constant
T1 construct: gene AFUA_6G02460; GST fusion (pGEX6P-1) from E. coli BL21(DE3) pLysS, GST tag cleaved with PreScission; obligate homodimer; 164-165 residues modelled; biotinylated for BLI
T1 sequence (Q4WCU5 1-190): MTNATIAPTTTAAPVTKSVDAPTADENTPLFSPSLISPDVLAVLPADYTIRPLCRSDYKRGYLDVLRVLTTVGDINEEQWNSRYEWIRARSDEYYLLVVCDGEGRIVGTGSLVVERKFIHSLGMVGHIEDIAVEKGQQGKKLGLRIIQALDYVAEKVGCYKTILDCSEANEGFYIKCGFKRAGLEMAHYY

AfGna1 [2] = target: T1, AfGna1; test: bio-layer interferometry, biotinylated protein on SSA biosensors; type: binding

Row | SMILES | Kd (AfGna1 [1]) [µM] | Kd (AfGna1 [2]) [µM]
1 | Clc1ccccc1-c1nnc[nH]1 [compound 1, fragment hit 1] | 6 | –
2 | Nc1cccc(-c2nc[nH]n2)c1Cl [compound 2, 2-chloro-3-(1,2,4-triazol-3-yl)aniline] | – | 0.8
3 | OCCN(CCO)c1cc(Cl)c(-c2nc[nH]n2)c(Cl)c1 [compound 3, 2,2′-((3,5-dichloro-4-(1,2,4-triazol-3-yl)phenyl)azanediyl)bis(ethan-1-ol)] | – | 5
